Active and inactive are the calls of the source.
Key:
[1] = CEM21 lymphoblast cell cytotoxicity, dose response, cytotoxicity control for viral fusion inhibitor project, CellTiter-Glo luminescence, cherry-picked (AID 652042); assay type: functional, cell-based;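 note: potency for signal decrease meaning cytotoxicity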
[2] = target: SWI/SNF-related matrix-associated actin-dependent regulator of chromatin subfamily A member 2 (Homo sapiens, UniProt P51531); experiment: Luminescence-based cell-based high throughput dose response assay to identify activators of the function of SWI/SNF related, matrix associated, actin dependent regulator of chromatin, subfamily a, member 2 (SMARCA2, BRM).; assay type: functional
Chain of SWI/SNF-related matrix-associated actin-dependent regulator of chromatin subfamily A member 2 (P51531 whole entry, the tested form may be a part): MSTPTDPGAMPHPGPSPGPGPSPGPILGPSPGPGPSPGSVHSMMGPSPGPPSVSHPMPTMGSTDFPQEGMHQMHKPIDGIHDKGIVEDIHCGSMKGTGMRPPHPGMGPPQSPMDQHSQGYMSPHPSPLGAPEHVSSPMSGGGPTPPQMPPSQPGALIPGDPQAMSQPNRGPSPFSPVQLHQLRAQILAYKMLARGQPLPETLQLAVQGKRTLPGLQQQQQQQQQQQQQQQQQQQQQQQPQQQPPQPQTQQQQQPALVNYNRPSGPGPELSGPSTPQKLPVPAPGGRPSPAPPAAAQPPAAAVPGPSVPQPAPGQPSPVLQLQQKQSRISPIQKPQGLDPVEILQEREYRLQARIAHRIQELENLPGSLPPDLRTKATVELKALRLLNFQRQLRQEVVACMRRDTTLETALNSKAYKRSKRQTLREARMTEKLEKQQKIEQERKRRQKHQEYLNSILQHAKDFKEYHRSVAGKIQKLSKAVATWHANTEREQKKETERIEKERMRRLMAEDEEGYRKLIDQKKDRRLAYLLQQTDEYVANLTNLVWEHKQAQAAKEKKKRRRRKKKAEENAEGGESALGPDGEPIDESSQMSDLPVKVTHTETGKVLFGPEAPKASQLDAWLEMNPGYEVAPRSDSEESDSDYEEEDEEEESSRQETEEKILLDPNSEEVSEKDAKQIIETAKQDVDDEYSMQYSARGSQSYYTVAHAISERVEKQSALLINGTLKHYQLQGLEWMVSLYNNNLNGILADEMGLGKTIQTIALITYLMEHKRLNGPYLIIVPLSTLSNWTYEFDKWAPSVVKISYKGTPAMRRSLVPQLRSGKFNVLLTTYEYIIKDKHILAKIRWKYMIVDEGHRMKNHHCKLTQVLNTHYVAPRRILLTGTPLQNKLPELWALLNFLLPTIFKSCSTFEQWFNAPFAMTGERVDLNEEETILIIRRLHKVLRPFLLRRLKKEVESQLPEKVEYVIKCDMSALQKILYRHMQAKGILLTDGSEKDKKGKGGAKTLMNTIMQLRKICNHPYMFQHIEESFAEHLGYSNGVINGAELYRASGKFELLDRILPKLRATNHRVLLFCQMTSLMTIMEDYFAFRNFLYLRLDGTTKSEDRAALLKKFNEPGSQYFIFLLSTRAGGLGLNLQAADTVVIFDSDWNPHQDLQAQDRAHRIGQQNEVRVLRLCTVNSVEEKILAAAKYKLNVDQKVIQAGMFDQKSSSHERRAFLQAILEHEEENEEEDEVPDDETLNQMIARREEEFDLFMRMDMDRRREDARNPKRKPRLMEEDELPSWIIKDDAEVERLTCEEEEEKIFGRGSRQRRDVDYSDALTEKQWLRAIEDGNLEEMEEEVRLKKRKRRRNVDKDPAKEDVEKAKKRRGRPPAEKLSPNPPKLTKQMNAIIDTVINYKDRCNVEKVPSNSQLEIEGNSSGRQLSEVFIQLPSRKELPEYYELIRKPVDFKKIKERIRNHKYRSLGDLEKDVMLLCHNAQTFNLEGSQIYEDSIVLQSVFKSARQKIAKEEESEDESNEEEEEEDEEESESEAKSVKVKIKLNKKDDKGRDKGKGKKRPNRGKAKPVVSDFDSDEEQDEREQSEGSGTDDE

[3] = ZM109 Env clade C HIV-1 fusion inhibitors, dose response, HeLa effector, CEM target cells, luciferase, cherry-pick (AID 652058); assay type: functional, cell-based
[4] = target: Cyclin-dependent kinase 5/CDK5 activator 1 (Homo sapiens, UniProt Q00535); experiment: CDK5/p35 kinase inhibitors, dose response, biochemical, cherry-picked samples, set 2 (AID 504545)
Chain of Cyclin-dependent kinase 5/CDK5 activator 1 (Q00535 whole entry): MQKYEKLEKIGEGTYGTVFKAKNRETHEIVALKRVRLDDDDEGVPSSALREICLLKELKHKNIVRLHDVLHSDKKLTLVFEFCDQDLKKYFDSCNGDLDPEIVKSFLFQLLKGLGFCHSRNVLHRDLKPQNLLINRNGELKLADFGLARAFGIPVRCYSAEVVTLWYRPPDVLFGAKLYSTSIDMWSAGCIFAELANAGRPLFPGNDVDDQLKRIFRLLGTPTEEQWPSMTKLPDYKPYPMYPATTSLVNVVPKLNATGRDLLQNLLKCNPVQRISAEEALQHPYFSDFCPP
Chain of Cyclin-dependent kinase 5/CDK5 activator 1 (Q15078 whole entry, further chain): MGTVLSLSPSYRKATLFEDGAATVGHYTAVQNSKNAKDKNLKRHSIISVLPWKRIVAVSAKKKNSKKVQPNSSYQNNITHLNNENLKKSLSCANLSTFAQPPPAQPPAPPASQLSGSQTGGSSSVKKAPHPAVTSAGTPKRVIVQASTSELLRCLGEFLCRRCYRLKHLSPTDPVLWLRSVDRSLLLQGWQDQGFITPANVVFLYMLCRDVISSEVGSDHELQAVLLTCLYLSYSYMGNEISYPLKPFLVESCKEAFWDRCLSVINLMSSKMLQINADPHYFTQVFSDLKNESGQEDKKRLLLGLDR

SN12K1 = experiment: cells; assay type: functional; settings: Homo sapiens
[5] = inhibitors of HIV Env-driven cell fusion, dose response, cherry-pick (AID 652057); assay type: functional, cell-based
[6] = off-target signal loss in HeLa-CEM21 co-culture – HeLa F-luc CTL cells, cherry-picked, counter-screen for HIV-1 Env fusion inhibitor project, dose response (AID 652040); assay type: functional, cell-based;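 note: potency for signal decrease marking cytotoxic or nonspecific inhibition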
[7] = Counterscreen for activators of the function of SWI/SNF related, matrix associated, actin dependent regulator of chromatin, subfamily a, member 2 (SMARCA2, BRM): Luminescence-based cell-based high throughput dose response assay to identify non-selective compounds using the VP16 reporter assay.; assay type: functional
[8] = inhibitors of clade B AD8 Env fusion, dose response, cell-based, cherry-pick (AID 652062); assay type: functional;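 note: luciferase signal from cell-cell fusion driven by HIV-1 clade B AD8 Env; potency is for inhibitors of fusion seen as a drop in luminescence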
Protein Rev = Protein Rev (Human immunodeficiency virus type 1 group M subtype B (isolate HXB2)(HIV-1), UniProt P04618); experiment: inhibitors of Rev binding to RRE RNA, dose response, biochemical, fluorescence polarization, HIV-1 (AID 434976); parameters: species or system Human immunodeficiency virus 1
Chain of Protein Rev (P04618 whole entry): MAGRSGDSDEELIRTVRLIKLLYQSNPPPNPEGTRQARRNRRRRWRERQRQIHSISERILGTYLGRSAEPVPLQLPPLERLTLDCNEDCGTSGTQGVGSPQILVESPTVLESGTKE

[9] = target: Female germline-specific tumor suppressor gld-1 (Caenorhabditis elegans, UniProt Q17339); experiment: inhibitors of GLD-1 binding to TGE RNA, dose response, biochemical, fluorescence polarization, C. elegans (AID 2802);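 note: fluorescence polarization of labeled TGE RNA bound by purified gld-1 protein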
Chain of Female germline-specific tumor suppressor gld-1 (Q17339 whole entry): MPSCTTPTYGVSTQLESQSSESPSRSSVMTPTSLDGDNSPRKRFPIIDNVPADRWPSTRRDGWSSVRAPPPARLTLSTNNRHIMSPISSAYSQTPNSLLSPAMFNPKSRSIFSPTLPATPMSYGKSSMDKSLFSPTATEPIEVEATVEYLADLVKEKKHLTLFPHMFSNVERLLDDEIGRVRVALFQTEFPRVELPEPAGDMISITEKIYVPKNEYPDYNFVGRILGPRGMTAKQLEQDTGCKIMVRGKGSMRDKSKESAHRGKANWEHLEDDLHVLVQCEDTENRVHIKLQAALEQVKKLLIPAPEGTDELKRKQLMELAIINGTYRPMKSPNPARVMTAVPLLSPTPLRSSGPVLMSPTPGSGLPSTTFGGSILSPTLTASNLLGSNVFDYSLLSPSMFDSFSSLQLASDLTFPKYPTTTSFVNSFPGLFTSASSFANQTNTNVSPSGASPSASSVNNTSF

X-box-binding protein 1 = X-box-binding protein 1 (Homo sapiens, UniProt P17861); assay type: functional, Cricetulus griseus;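 note: confirmatory dose-response counter-screen serving a CHOP assay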
Chain of X-box-binding protein 1 (P17861 whole entry): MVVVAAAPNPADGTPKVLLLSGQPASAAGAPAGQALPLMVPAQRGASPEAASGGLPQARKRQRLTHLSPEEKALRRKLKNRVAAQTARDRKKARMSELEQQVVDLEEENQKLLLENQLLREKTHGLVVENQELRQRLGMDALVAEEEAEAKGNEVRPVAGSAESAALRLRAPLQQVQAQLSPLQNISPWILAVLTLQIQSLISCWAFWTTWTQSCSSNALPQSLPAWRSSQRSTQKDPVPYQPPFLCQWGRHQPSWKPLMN

[10] = target: Eukaryotic translation initiation factor 4E (Mus musculus, UniProt P63073); experiment: eIF4E–eIF4G protein interaction inhibitors, dose response, biochemical, TR-FRET (AID 855); assay type: functional;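 note: potency for disrupting eIF4E binding to eIF4GI seen as loss of FRET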
Chain of Eukaryotic translation initiation factor 4E (P63073 whole entry): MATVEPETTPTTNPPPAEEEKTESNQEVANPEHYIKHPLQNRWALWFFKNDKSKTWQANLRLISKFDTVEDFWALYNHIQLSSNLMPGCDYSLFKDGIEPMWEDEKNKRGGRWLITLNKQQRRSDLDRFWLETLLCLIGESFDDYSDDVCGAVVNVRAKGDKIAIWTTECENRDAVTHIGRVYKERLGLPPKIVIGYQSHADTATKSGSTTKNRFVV

SUMO-activating enzyme [11] = target: T1, SUMO-activating enzyme (Homo sapiens, UniProt Q9UBT2); experiment: inhibitors of in vitro SUMOylation cascade, primary screen, biochemical, HTRF, uHTS (AID 2006); assay type: protein-complex assay
T1 sequence (Q9UBE0 whole entry): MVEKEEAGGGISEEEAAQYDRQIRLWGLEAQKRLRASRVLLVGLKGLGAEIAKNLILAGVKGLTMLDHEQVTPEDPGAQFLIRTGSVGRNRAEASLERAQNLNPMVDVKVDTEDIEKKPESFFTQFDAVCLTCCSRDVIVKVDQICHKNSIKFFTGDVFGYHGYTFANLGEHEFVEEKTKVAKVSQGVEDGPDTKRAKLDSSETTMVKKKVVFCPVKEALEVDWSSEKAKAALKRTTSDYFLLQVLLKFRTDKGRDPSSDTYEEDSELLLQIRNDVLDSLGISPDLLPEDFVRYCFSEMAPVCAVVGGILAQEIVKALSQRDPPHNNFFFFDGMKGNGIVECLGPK
T1 sequence (Q9UBT2 whole entry): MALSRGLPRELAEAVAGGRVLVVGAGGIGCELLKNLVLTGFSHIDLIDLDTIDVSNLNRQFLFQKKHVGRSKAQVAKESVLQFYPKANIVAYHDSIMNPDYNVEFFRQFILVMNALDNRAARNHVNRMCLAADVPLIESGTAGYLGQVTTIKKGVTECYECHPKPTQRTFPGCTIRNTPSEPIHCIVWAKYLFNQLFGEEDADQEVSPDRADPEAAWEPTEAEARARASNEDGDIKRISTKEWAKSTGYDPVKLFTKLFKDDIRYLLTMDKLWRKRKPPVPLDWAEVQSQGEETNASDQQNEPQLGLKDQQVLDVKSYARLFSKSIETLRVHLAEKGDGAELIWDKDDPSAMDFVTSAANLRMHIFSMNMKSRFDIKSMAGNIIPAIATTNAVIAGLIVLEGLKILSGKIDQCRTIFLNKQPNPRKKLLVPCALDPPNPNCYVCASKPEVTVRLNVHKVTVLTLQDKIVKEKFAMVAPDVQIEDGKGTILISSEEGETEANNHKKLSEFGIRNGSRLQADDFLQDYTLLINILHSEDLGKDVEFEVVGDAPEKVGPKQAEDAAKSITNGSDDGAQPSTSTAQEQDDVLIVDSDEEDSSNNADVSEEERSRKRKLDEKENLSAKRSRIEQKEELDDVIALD

SUMO-activating enzyme [12] = target: T1, SUMO-activating enzyme; experiment: SUMOylation inhibitor hit validation, confirmation, SUMOylation inhibitor project, biochemical, AlphaScreen (AID 2018); assay type: functional
[13] = target: Long-chain-fatty-acid--AMP ligase FadD28 (Mycobacterium tuberculosis, UniProt P9WQ59); experiment: Fluorescence polarization aasay to screen for inhibitors that compete for the binding of FadD28 to a bisubstrate Measured in Biochemical System Using Plate Reader - 2147-01_Inhibitor_Dose_CherryPick_Activity.; assay type: functional, Mycobacterium tuberculosis H37Rv
Chain of Long-chain-fatty-acid--AMP ligase FadD28 (P9WQ59 whole entry): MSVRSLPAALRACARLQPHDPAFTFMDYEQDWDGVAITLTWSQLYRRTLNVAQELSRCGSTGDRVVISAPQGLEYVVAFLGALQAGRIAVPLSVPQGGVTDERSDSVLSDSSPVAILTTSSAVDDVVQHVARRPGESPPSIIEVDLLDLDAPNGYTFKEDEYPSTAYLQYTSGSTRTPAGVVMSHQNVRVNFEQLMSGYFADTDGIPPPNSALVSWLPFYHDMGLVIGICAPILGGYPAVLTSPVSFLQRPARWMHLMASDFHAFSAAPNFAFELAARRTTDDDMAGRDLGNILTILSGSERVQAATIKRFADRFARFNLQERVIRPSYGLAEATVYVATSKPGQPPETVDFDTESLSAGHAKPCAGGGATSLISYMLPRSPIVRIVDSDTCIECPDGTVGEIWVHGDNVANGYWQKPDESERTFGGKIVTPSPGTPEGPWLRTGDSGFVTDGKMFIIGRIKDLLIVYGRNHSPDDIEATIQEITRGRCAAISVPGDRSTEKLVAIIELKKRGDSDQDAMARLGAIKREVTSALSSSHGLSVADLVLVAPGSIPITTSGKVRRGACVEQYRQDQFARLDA

In the case of `N#Cc1cn(C2OC(CO)C(O)C2O)c2ncnc(N)c12` (stereo unspecified), the AC50 [1] is reported as < 0.26 µM (active), the EC50 [2] is reported as > 91.2 µM (inactive) and the AC50 [3] is reported as < 0.26 µM (active). The AC50 [4] was 5.59 µM (active), the GI50 (SN12K1) was 0.0425 µM (active) and the AC50 [5] was < 0.26 µM (active). The AC50 [6] was 1.39 µM (active), the EC50 [7] was > 91.2 µM (inactive) and the AC50 [8] was 0.621 µM (active).

For `Nc1c(-c2cccc([N+](=O)[O-])c2)nc2ccccn12`, the IC50 (Protein Rev) was > 75.5 µM (not active) and the IC50 [9] was 7.64 µM (active).

In the case of `CC(C)(C)c1ccc(NC(=O)Nc2ccc(F)cc2)cc1`, the “Absolute IC50 (XBP1)” value (X-box-binding protein 1) is reported as 10 µM.

In the case of `Cc1ccc(NC(=O)CN2C(=O)S/C(=C/c3ccc(O)c([N+](=O)[O-])c3)C2=O)cc1C`, the IC50 [10] is reported as 50 µM (inactive), the IC50 (SUMO-activating enzyme [11]) is reported as 20.9 µM (active) and the IC50 (SUMO-activating enzyme [12]) is reported as 5.08 µM (active). For the same compound, the AC50 [13] was 7.6 µM (active).
